Active and inactive are the calls of the source. The rule behind the calls is not given here.

The test system of data set [1] is Trypanosoma cruzi. In words: Antiparasitic activity against Trypanosoma cruzi Tulahuen intracellular amastigotes by beta-galactosidase reporter gene assay. It counts as functional, organism-based.
For data set [2], the system named is UGT. In words: Drug metabolism in mouse liver microsome S9 fraction assessed as UGT-mediated metabolism by measuring compound remaining at 5 uM pretreated with UDPGA and measured after 15 mins by UPLC-MS/MS analysis. It counts as ADME, microsomes. As to conditions: liver microsome S9 fraction, read-out: Stability. (In general: Liver microsomes are vesicles of endoplasmic reticulum, rich in cytochrome P450 enzymes.)

Data set [3] deals with UGT. In words: Drug metabolism in mouse liver microsome S9 fraction assessed as UGT-mediated metabolism by measuring compound remaining at 5 uM pretreated with UDPGA and measured after 30 mins by UPLC-MS/MS analysis. Format: ADME, microsomes. To be noted: liver microsome S9 fraction, read-out: Stability.
Data set [4] addresses T1, UDP-glucuronosyltransferases (UGTs) (family) (Homo sapiens, UniProt O60656+O75310+O75795+P06133+P0DTE4+P0DTE5+P16662+P19224+P22309+P22310+P35503+P35504+P36537+P54855+Q6UWM9+Q9BY64+Q9HAW7+Q9HAW8+Q9HAW9). In words: Drug metabolism in human liver microsome S9 fraction assessed as UGT-mediated metabolism by measuring compound remaining at 5 uM pretreated with UDPGA and measured after 15 mins by UPLC-MS/MS analysis. It counts as ADME, microsomes. To be noted: liver microsome S9 fraction, read-out: Stability.

In data set [5] the test system is CYP450. Briefly: Drug metabolism in dog liver microsome S9 fraction assessed as CYP450-mediated metabolism by measuring compound remaining at 5 uM pretreated with NADPH and measured after 15 mins by UPLC-MS/MS analysis. As to conditions: liver microsome S9 fraction, read-out: Stability. Format: ADME, microsomes, Canis lupus familiaris.
Data set [6] has as its system Trypanosoma cruzi. Briefly: Antiparasitic activity against Trypanosoma cruzi Y strain bloodstream trypomastigotes infected in Swiss Webster mouse assessed as protection against parasite-induced mortality at 25 mg/kg, po bid via gavage administered for 5 consecutive days starting from day 5 post infection measured at day 15 to day 22 post infection. It counts as functional, organism-based.

Data set [7] relates to Trypanosoma cruzi. In words: Antiparasitic activity against Trypanosoma cruzi Y strain bloodstream trypomastigotes infected in Swiss Webster mouse assessed as decrease in parasitemia at 25 mg/kg, po bid via gavage administered for 5 consecutive days measured at day 8 post infection by direct microscopic counting relative to control. Format: functional. Also noted: scale not given: the % may be the effect or the level left.

For data set [8], the system named is UGT. Briefly: Drug metabolism in rat liver microsome S9 fraction assessed as UGT-mediated metabolism by measuring compound remaining at 5 uM pretreated with UDPGA and measured after 60 mins by UPLC-MS/MS analysis. To be noted: liver microsome S9 fraction, read-out: Stability. It counts as ADME, microsomes.
Data set [9] addresses T1, UDP-glucuronosyltransferases (UGTs) (family). Briefly: Drug metabolism in human liver microsome S9 fraction assessed as UGT-mediated metabolism by measuring compound remaining at 5 uM pretreated with UDPGA and measured after 30 mins by UPLC-MS/MS analysis. It counts as ADME, microsomes. As to conditions: liver microsome S9 fraction, read-out: Stability.
The test system of data set [10] is UGT. Briefly: Drug metabolism in rat liver microsome S9 fraction assessed as UGT-mediated metabolism by measuring compound remaining at 5 uM pretreated with UDPGA and measured after 15 mins by UPLC-MS/MS analysis. It counts as ADME, microsomes. To be noted: liver microsome S9 fraction, read-out: Stability.
Data set [11] concerns CYP450. Briefly: Drug metabolism in mouse liver microsome S9 fraction assessed as CYP450-mediated metabolism by measuring compound remaining at 5 uM pretreated with NADPH and measured after 30 mins by UPLC-MS/MS analysis. Format: ADME, microsomes. As to conditions: liver microsome S9 fraction, read-out: Stability.
For data set [12], the system named is Trypanosoma cruzi. Briefly: Trypanocidal activity against Trypanosoma cruzi Y strain intracellular amastigotes infected in mouse cardiac cells assessed as parasite death after 168 hrs by Giemsa-staining based assay. Format: functional, organism-based.
The subject of data set [13] is CYP450. In words: Drug metabolism in dog liver microsome S9 fraction assessed as CYP450-mediated metabolism by measuring compound remaining at 5 uM pretreated with NADPH and measured after 60 mins by UPLC-MS/MS analysis. It counts as ADME, microsomes, Canis lupus familiaris. As to conditions: liver microsome S9 fraction, read-out: Stability.
Data set [14] relates to UGT. In words: Drug metabolism in mouse liver microsome S9 fraction assessed as UGT-mediated metabolism by measuring compound remaining at 5 uM pretreated with UDPGA and measured after 60 mins by UPLC-MS/MS analysis. Format: ADME, microsomes. To be noted: liver microsome S9 fraction, read-out: Stability.
For data set [15], the system named is Trypanosoma cruzi. Briefly: Trypanocidal activity against Trypanosoma cruzi Y strain bloodstream trypomastigotes isolated from infected Swiss mouse […] assessed as parasite death after 24 hrs by neubauer chamber based light microscopy. Format: functional, organism-based.
Data set [16] can be described thus: Therapeutic index, ratio EC50 for human MRC5 SV2 cells to EC50 for Trypanosoma cruzi Tulahuen CL2 intracellular amastigotes. Format: toxicity, cell-based. To be noted: read-out: Ratio EC50.
The target in data set [17] is T2, Cytochrome P450 (family) (Homo sapiens, UniProt P04798+P05177+P05181+P08684+P10632+P10635+P11509+P11712+P13584+P20813+P20815+P20853+P24462+P24903+P33260+P33261+P51589+P78329+P98187+Q02928+Q08477+Q16678+Q16696+Q5TCH4+Q6VVX0+Q7Z449+Q8TAV3+Q96SQ9+Q9HB55). In words: Drug metabolism in human liver microsome S9 fraction assessed as CYP450-mediated metabolism by measuring compound remaining at 5 uM pretreated with NADPH and measured after 60 mins by UPLC-MS/MS analysis. Format: ADME, microsomes. To be noted: liver microsome S9 fraction, read-out: Stability.

The test system of data set [18] is CYP450. In words: Drug metabolism in rat liver microsome S9 fraction assessed as CYP450-mediated metabolism by measuring compound remaining at 5 uM pretreated with NADPH and measured after 60 mins by UPLC-MS/MS analysis. Format: ADME, microsomes. To be noted: liver microsome S9 fraction, read-out: Stability.
For data set [19], the system named is CYP450. In words: Drug metabolism in rat liver microsome S9 fraction assessed as CYP450-mediated metabolism by measuring compound remaining at 5 uM pretreated with NADPH and measured after 15 mins by UPLC-MS/MS analysis. To be noted: liver microsome S9 fraction, read-out: Stability. It counts as ADME, microsomes.
Data set [20] can be described thus: Toxicity in Swiss Webster mouse infected with Trypanosoma cruzi Y strain bloodstream trypomastigotes assessed as weight loss at 25 mg/kg, po bid via gavage administered for 5 consecutive days measured at day 40 post infection. It counts as organism-based. As to conditions: in vivo.
For data set [21], the system named is Trypanosoma cruzi. Briefly: Antiparasitic activity against Trypanosoma cruzi Tulahuen CL2 intracellular amastigotes expressing beta-galactosidase infected in human MRC5 SV2 cells after 7 days by chlorophenol red beta-D-galactopyranoside-based spectrophotometric analysis. To be noted: Tulahuen CL2, MRC-5 SV2, 168 h, read-out: EC50. Format: functional, organism-based.

Data set [22] relates to Trypanosoma cruzi. Briefly: Antiparasitic activity against Trypanosoma cruzi Y strain bloodstream trypomastigotes infected in Swiss Webster mouse assessed as protection against parasite-induced mortality at 25 mg/kg, po bid via gavage administered for 5 consecutive days starting from day 5 post infection measured at day 15 post infection. Format: functional, organism-based.

For data set [23], the system named is UGT. Briefly: Drug metabolism in rat liver microsome S9 fraction assessed as UGT-mediated metabolism by measuring compound remaining at 5 uM pretreated with UDPGA and measured after 30 mins by UPLC-MS/MS analysis. As to conditions: liver microsome S9 fraction, read-out: Stability. Format: ADME, microsomes.
In data set [24] the test system is Trypanosoma cruzi. Briefly: Antiparasitic activity against Trypanosoma cruzi Y strain bloodstream trypomastigotes infected in Swiss Webster mouse at 25 mg/kg, po bid via gavage administered for 5 consecutive days starting from day 5 post infection followed by cyclophosphamide-induced immunosuppression on day 40 post infection for 4 consecutive days. It counts as functional, organism-based.

Data set [25] deals with T1, UDP-glucuronosyltransferases (UGTs) (family). Briefly: Drug metabolism in human liver microsome S9 fraction assessed as UGT-mediated metabolism by measuring compound remaining at 5 uM pretreated with UDPGA and measured after 60 mins by UPLC-MS/MS analysis. Format: ADME, microsomes. To be noted: liver microsome S9 fraction, read-out: Stability.
For data set [26], the system named is UGT. In words: Drug metabolism in dog liver microsome S9 fraction assessed as UGT-mediated metabolism by measuring compound remaining at 5 uM pretreated with UDPGA and measured after 60 mins by UPLC-MS/MS analysis. To be noted: liver microsome S9 fraction, read-out: Stability. It counts as ADME, microsomes, Canis lupus familiaris.
The target of data set [27] is T2, Cytochrome P450 (family). In words: Drug metabolism in human liver microsome S9 fraction assessed as CYP450-mediated metabolism by measuring compound remaining at 5 uM pretreated with NADPH and measured after 30 mins by UPLC-MS/MS analysis. It counts as ADME, microsomes. As to conditions: liver microsome S9 fraction, read-out: Stability.
Data set [28] relates to CYP450. Briefly: Drug metabolism in rat liver microsome S9 fraction assessed as CYP450-mediated metabolism by measuring compound remaining at 5 uM pretreated with NADPH and measured after 30 mins by UPLC-MS/MS analysis. Format: ADME, microsomes. To be noted: liver microsome S9 fraction, read-out: Stability.
The test system of data set [29] is CYP450. Briefly: Drug metabolism in dog liver microsome S9 fraction assessed as CYP450-mediated metabolism by measuring compound remaining at 5 uM pretreated with NADPH and measured after 30 mins by UPLC-MS/MS analysis. It counts as ADME, microsomes, Canis lupus familiaris. As to conditions: liver microsome S9 fraction, read-out: Stability.
Data set [30] has as its system Trypanosoma cruzi. Briefly: Antiparasitic activity against Trypanosoma cruzi Y strain bloodstream trypomastigotes infected in Swiss Webster mouse assessed as protection against parasite-induced mortality by measuring survivial at 25 mg/kg, po bid via gavage administered for 5 consecutive days starting from day 5 post infection measured at day 40 post infection relative to control. It counts as functional.

For data set [31], the system named is UGT. In words: Drug metabolism in dog liver microsome S9 fraction assessed as UGT-mediated metabolism by measuring compound remaining at 5 uM pretreated with UDPGA and measured after 15 mins by UPLC-MS/MS analysis. It counts as ADME, microsomes, Canis lupus familiaris. As to conditions: liver microsome S9 fraction, read-out: Stability.
Data set [32] in a line: Cytotoxicity against human MRC5 SV2 cells assessed as reduction in cell viability after 3 days resazurin-based fluorimetric assay. To be noted: MRC-5 SV2, 72 h.
Data set [33] has as its system CYP450. Briefly: Drug metabolism in mouse liver microsome S9 fraction assessed as CYP450-mediated metabolism by measuring compound remaining at 5 uM pretreated with NADPH and measured after 15 mins by UPLC-MS/MS analysis. Format: ADME, microsomes. To be noted: liver microsome S9 fraction, read-out: Stability.
For data set [34], the target named is T2, Cytochrome P450 (family). In words: Drug metabolism in human liver microsome S9 fraction assessed as CYP450-mediated metabolism by measuring compound remaining at 5 uM pretreated with NADPH and measured after 15 mins by UPLC-MS/MS analysis. It counts as ADME, microsomes. As to conditions: liver microsome S9 fraction, read-out: Stability.
Data set [35] has as its system UGT. In words: Drug metabolism in dog liver microsome S9 fraction assessed as UGT-mediated metabolism by measuring compound remaining at 5 uM pretreated with UDPGA and measured after 30 mins by UPLC-MS/MS analysis. It counts as ADME, microsomes, Canis lupus familiaris. As to conditions: liver microsome S9 fraction, read-out: Stability.
Data set [36] can be described thus: Cytotoxicity against Swiss mouse embryonic cardiomyocytes assessed as reduction in cell viability after 24 hrs by prestoblue-staining based colorimetry. As to conditions: Cardiac muscle cell.
Data set [37] has as its system CYP450. Briefly: Drug metabolism in mouse liver microsome S9 fraction assessed as CYP450-mediated metabolism by measuring compound remaining at 5 uM pretreated with NADPH and measured after 60 mins by UPLC-MS/MS analysis. It counts as ADME, microsomes. To be noted: liver microsome S9 fraction, read-out: Stability.

A word on the EC50: it is the concentration that produces a half-maximal response. Molecule `CN(C)c1ncnc2c1ncn2[C@@H]1O[C@H](CO)[C@@H](N)[C@H]1O` [PUROMYCIN AMINONUCLEOSIDE] returned an EC50 with Trypanosoma cruzi [1] of 1000 nM.
As for `Nc1ncnc2c1c(-c1ccc(Cl)cc1)cn2[C@@H]1O[C@H](CO)C[C@H]1O`, the remaining at 0.25 h, 5 µM in the data set on UGT [2] amounted to 101%; in [4] it was 100%; in the data set on CYP450 [5], 98%; with UGT [10] it was 101%; in the data set with CYP450 [19], 101%; with UGT [31], 96%. Besides, the remaining at 0.25 h, 5 µM is 86% with CYP450 [33] and 102% at Cytochrome P450 (family) [34]. The remaining at 0.5 h, 5 µM turned out to be 95% with UGT [3]; 106% in [9]; 75% with CYP450 [11]; 96% with UGT [23]; 95% at Cytochrome P450 (family) [27]; 101% in the data set on CYP450 [28]. Also, the remaining at 0.5 h, 5 µM in the data set with CYP450 [29] and with UGT [35] was 96% in each case. In addition, the result with Trypanosoma cruzi [6] and in the data set with Trypanosoma cruzi [22] was Active. For the same molecule, the Activity was 94.6% in the data set on Trypanosoma cruzi [7], “Non-Toxic” in data set [20] and 100% in the data set on Trypanosoma cruzi [30]. Moreover, the remaining at 1 h, 5 µM turned out to be 96% in the data set on UGT [8]; 90% in the data set on CYP450 [13]; 89% in the data set with UGT [14]; 93% at Cytochrome P450 (family) [17]; 91% with CYP450 [18]; 100% in data set [25]. For the same molecule, the remaining at 1 h, 5 µM with UGT [26] amounted to 95%; in the data set with CYP450 [37], 68%. For the same molecule, the EC50 in the data set on Trypanosoma cruzi [12] is 29 nM; in the data set on Trypanosoma cruzi [15] it was above 20000 nM; in the data set with Trypanosoma cruzi [21], 47 nM; in [32] it was 19100 nM; in data set [36], 284000 nM. Also, in [16], the selectivity ratio came out at 410. Also, in the data set with Trypanosoma cruzi [24], the outcome was inactive.

Values taken from ChEMBL document CHEMBL4382200, “Discovery of Novel 7-Aryl 7-Deazapurine 3'-Deoxy-ribofuranosyl Nucleosides with Potent Activity against Trypanosoma cruzi” (J Med Chem, 2018).
